# Values of other authors in patent US9084671B2, “Methods of forming a micronized peptide coated stent” (ABBOTT CARDIOVASCULAR SYSTEMS INC., priority 2002, dated 2015).
# Details: stated as a property of the highly cationic guanidinium peptide; no method given
substance,measurement,value
heptaarginine [heptamer of L-arginine],pKa,13.2
